Source: ChEMBL document CHEMBL1136176, “QSAR study on the affinity of some arylpiperazines towards the 5-HT1A/alpha1-adrenergic receptor using the E-state index” (Bioorg Med Chem Lett, 2003)

Columns and labels:
Format in all cases: functional, tissue-based
[1] = biological target: Adrenergic receptor alpha-1 (Rattus norvegicus) (UniProt P15823+P23944+P43140); assay: Antagonistic activity against alpha-1 adrenergic receptor in rat cerebral cortex using [3H]prazosin as radioligand.
[2] = biological target: T1, 5-hydroxytryptamine receptor 1A (Rattus norvegicus) (UniProt P19327); assay: Antagonistic activity against 5-hydroxytryptamine 1A receptor in rat cerebral cortex using [3H]-8-OH-DPAT as radioligand.
T1 sequence (whole entry): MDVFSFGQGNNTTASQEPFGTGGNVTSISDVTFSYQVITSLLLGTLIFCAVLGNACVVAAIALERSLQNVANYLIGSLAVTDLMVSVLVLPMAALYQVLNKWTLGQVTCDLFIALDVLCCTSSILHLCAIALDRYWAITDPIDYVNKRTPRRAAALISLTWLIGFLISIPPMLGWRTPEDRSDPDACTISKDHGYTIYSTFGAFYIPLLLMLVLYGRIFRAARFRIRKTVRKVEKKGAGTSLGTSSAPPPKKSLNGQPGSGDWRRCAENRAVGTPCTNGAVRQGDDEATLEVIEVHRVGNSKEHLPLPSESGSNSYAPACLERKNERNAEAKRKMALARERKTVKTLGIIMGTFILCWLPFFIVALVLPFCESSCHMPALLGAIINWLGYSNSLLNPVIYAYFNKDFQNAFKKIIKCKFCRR

[3] = biological target: T1, 5-hydroxytryptamine receptor 1A (Rattus norvegicus); assay: Antagonistic activity against 5-hydroxytryptamine 1A receptor in rat cerebral cortex using [3H]8-OH-DPAT as radioligand.

Compound	K2 [1] [nM]	pK2 [1]	pK1 [2]	K1 [3] [nM]
O=C1C2CCCCN2C(=O)CN1CCCN1CCN(c2ccccc2C(F)(F)F)CC1 (stereo unspecified)	339	6.47	6.75	179
N#Cc1ccccc1N1CCN(CCCN2C(=O)C3CCCCN3C2=O)CC1 (stereo unspecified)	8.2	8.09	7.19	65
Nc1cccc(N2CCN(CCCCN3C(=O)C4CCCCN4C3=O)CC2)c1 (stereo unspecified)	231	6.64	7.17	68
CCCCOc1ccccc1N1CCN(CCCN2C(=O)C3CCCN3C2=O)CC1 (stereo unspecified)	6.4	8.19	7.82	15
Cc1ccccc1N1CCN(CCCN2CC(=O)N3CCCC3C2=O)CC1 (stereo unspecified)	17	7.76	7.31	48
O=C1C2CCCCN2C(=O)N1CCCCN1CCN(c2cccc(Br)c2)CC1 (stereo unspecified)	5.9	8.23	8.27	5.4
CCCCOc1ccccc1N1CCN(CCCCN2C(=O)C3CCCCN3C2=O)CC1 (stereo unspecified)	5	8.3	8.66	2.2
O=C1C2CCCN2C(=O)N1CCCN1CCN(c2cccc(Br)c2)CC1 (stereo unspecified)	25	7.61	7.47	34
CCCOC(=O)c1ccccc1N1CCN(CCCN2C(=O)C3CCCCN3C2=O)CC1 (stereo unspecified)	13	7.89	7.34	46
CCCCOc1ccccc1N1CCN(CCCCN2CC(=O)N3CCCC3C2=O)CC1 (stereo unspecified)	10.5	7.98	8.06	8.7
CCCOC(=O)c1ccccc1N1CCN(CCCCN2C(=O)C3CCCN3C2=O)CC1 (stereo unspecified)	41	7.39	8.32	4.8
CCCNC(=O)c1ccccc1N1CCN(CCCN2C(=O)C3CCCN3C2=O)CC1 (stereo unspecified)	608	6.22	6.09	808
CC(C)C(=O)Nc1cccc(N2CCN(CCCN3C(=O)C4CCCCN4C3=O)CC2)c1 (stereo unspecified)	4430	5.35	6.11	776
Cc1ccccc1N1CCN(CCCN2C(=O)C3CCCCN3C2=O)CC1 (stereo unspecified)	5.7	8.25	6.66	220
Cc1ccccc1N1CCN(CCCN2CC(=O)N3CCCCC3C2=O)CC1 (stereo unspecified)	29	7.53	6.84	143
CC(C)C(=O)Nc1cccc(N2CCN(CCCCN3CC(=O)N4CCCCC4C3=O)CC2)c1 (stereo unspecified)	16100	4.79	6.7	198

Compound	K2 [1] [nM]	pK2 [1]	pK1 [2]	K1 [3] [nM]
N#Cc1ccccc1N1CCN(CCCCN2C(=O)C3CCCN3C2=O)CC1 (stereo unspecified)	4.9	8.31	8.4	4
Cc1ccccc1N1CCN(CCCCN2C(=O)C3CCCN3C2=O)CC1 (stereo unspecified)	7	8.15	7.78	16
N#Cc1ccccc1N1CCN(CCCN2CC(=O)N3CCCC3C2=O)CC1 (stereo unspecified)	17	7.76	7.56	27
CCCCOc1ccccc1N1CCN(CCCN2CC(=O)N3CCCCC3C2=O)CC1 (stereo unspecified)	13	7.89	7.04	92
N#Cc1ccccc1N1CCN(CCCCN2CC(=O)N3CCCCC3C2=O)CC1 (stereo unspecified)	30	7.52	7.82	15
Cc1ccccc1N1CCN(CCCCN2CC(=O)N3CCCC3C2=O)CC1 (stereo unspecified)	25	7.59	7.92	12
O=C1C2CCCN2C(=O)CN1CCCCN1CCN(c2ccccc2C(F)(F)F)CC1 (stereo unspecified)	72	7.14	8.26	5.5
CC(C)C(=O)Nc1cccc(N2CCN(CCCCN3C(=O)C4CCCN4C3=O)CC2)c1 (stereo unspecified)	5420	5.27	6.72	193
CC(C)C(=O)Nc1cccc(N2CCN(CCCN3CC(=O)N4CCCC4C3=O)CC2)c1 (stereo unspecified)	1440	5.84	6.57	266
CCCNC(=O)c1ccccc1N1CCN(CCCCN2C(=O)C3CCCCN3C2=O)CC1 (stereo unspecified)	521	6.28	6.42	378
CCCOC(=O)c1ccccc1N1CCN(CCCN2CC(=O)N3CCCC3C2=O)CC1 (stereo unspecified)	12	7.93	–	–
CCCNC(=O)c1ccccc1N1CCN(CCCN2CC(=O)N3CCCCC3C2=O)CC1 (stereo unspecified)	811	6.09	5.34	4610
CCCOC(=O)c1ccccc1N1CCN(CCCCN2CC(=O)N3CCCCC3C2=O)CC1 (stereo unspecified)	392	6.41	7.55	28
Nc1cccc(N2CCN(CCCN3C(=O)C4CCCN4C3=O)CC2)c1 (stereo unspecified)	393	6.41	5.93	1180
Cc1ccccc1N1CCN(CCCCN2CC(=O)N3CCCCC3C2=O)CC1 (stereo unspecified)	27	7.56	7.5	32
CCCNC(=O)c1ccccc1N1CCN(CCCCN2CC(=O)N3CCCC3C2=O)CC1 (stereo unspecified)	1350	5.87	5.91	1230
